From paper PMC10005332, “It Takes Two to Tango, Part II: Synthesis of A-Ring Functionalised Quinones Containing Two Redox-Active Centres with Antitumour Activities” (Molecules, 2023)
Where two headings read alike, the source gives them in different places.

Experiments:
[1] = tested on: RAJI (human Burkitt’s lymphoma); test: MTT cytotoxicity assay, RAJI; assay type: cell-based; details: for IC50: Homo sapiens, Raji, 72 h, MTT, 72 h exposure, three independent experiments, read-out: Cytotoxic activity IC50 (95% CI) RAJI; for Selectivity index RAJI: ratio of cytotoxicity L929 / RAJI
Description: (§1) In this study, the IC50 was obtained in micromolar concentrations, using the colourimetric MTT (3-(4,5-dimethylthiazol-2-yl)-2,5-diphenyl tetrazolium bromide)) assay, and doxorubicin was used as the positive control. […] The activity against the non-tumoural murine fibroblast cell line L929 was also evaluated in order to study the cytotoxicity behaviour of each compound and to understand their respective relative selectivity. The selectivity index was obtained using the ratio of measured cytotoxicity between the L929 cell line and each of the cancer cell lines, and the results are presented in Table 2.
(§2) The in vitro cytotoxicity activity of the compounds was evaluated by the colorimetric MTT (3-(4,5-dimethylthiazol-2-yl)-2,5-diphenyl tetrazolium bromide)) assay using the following tumor cell lines: HCT-116 (colon carcinoma), PC3 (prostate), SNB-19 (glioblastoma), K-562 (myelogenous leukaemia), HL-60 (human promyelocytic leukaemia), B16 (murine melanoma), A549 (human lung carcinoma), KG1 (human acute myeloid leukaemia), and RAJI (human Burkitt’s lymphoma), which were provided by the National Cancer Institute (Bethesda, MD, USA). The L929 cell line (mouse fibroblast L cells NCTC clone 929) employed in this study as a control cell line was obtained from the American Type Culture Collection (Manassas, VA, USA). The cell lines (Table S4) were maintained in flasks containing RPMI 1640 or DMEM medium supplemented with 10% bovive fetal sérum, 100 U/mL penicillin, and 100 μg/mL streptomycin at 37 °C and in 5% CO2 atmosphere. The compounds tested were dissolved in DMSO. Doxorubicin served as the positive control. Cell treatments were performed with three replicates and the cells were mycoplasma free. After 72 h incubation, 100 μL of MTT solution (0.5 mg/mL) was added to each well, and the cells were incubated for 3 h. The supernatant was removed and 100 μL of DMSO was added and the absorbance at 595 nm was measured using Victor Nivo Multimode plate reader (PerkinElmer, Waltham, MA, USA). The absorbances obtained were used to calculate the IC50 values by nonlinear regression employing appropriate statistical software.
(§3) The in vitro cytotoxicity activity of compounds was evaluated by the colorimetric MTT (3-(4,5-dimethylthiazol-2-yl)-2,5-diphenyl tetrazolium bromide)) assay using tumor cell lines: HCT-116 (colon carcinoma), PC3 (prostate), SNB-19 (glioblastoma), K-562 (myelogenous leukaemia), HL-60 (human promyelocytic leukaemia), B16 (murine melanoma), A549 (human lung carcinoma), KG1 (human acute myeloid leukaemia) and RAJI (human Burkitt's lymphoma), which were provided by the National Cancer Institute (Bethesda, MD, USA). The L929 cell line (mouse fibroblast L cells NCTC clone 929) employed in this study as a control cell line was obtained from the American Type Culture […]
(§4) Collection (Manassas, VA, USA). Cell lines (Table 01) were maintained in flasks containing RPMI 1640 or DMEM medium supplemented with 10% bovive fetal sérum, 100 U/mL penicillin, and 100 μg/mL streptomycin at 37 °C and 5% CO2 atmosphere.
(§5) Compounds tested were dissolved in DMSO. Doxorubicin served as positive control. Cell treatments were performed with three replicates and cells were mycoplasma-free. After 72 h incubation, 100 μL of MTT solution (0.5 mg/mL) was added to each well, and cells were incubated for 3 h. The supernatant was removed and 100 μL of DMSO was added and the absorbance at 595 nm was measured using Victor Nivo Multimode plate reader

[2] = tested on: HL60 (human pro-myelocytic leukaemia); test: MTT cytotoxicity assay, HL60; assay type: cell-based; details: for IC50: MTT, 72 h exposure, three independent experiments, read-out: Cytotoxic activity IC50 (95% CI) HL60; for Selectivity index HL60: ratio of cytotoxicity L929 / HL60
Description: as §1, §2, §3, §4, §5

[3] = tested on: K-562 (human chronic myeloid leukaemia); test: MTT cytotoxicity assay, K-562; assay type: cell-based; details: for IC50: Homo sapiens, K562, MTT, 72 h exposure, three independent experiments, read-out: Cytotoxic activity IC50 (95% CI) K-562; for Selectivity index K-562: ratio of cytotoxicity L929 / K-562
Description: as §1, §2, §3, §4, §5

[4] = tested on: KG1 (human acute myeloid leukaemia); test: MTT cytotoxicity assay, KG1; assay type: cell-based; details: for IC50: Homo sapiens, MTT, 72 h exposure, three independent experiments, read-out: Cytotoxic activity IC50 (95% CI) KG1; for Selectivity index KG1: ratio of cytotoxicity L929 / KG1
Description: as §1, §2, §3, §4, §5

[5] = tested on: SNB-19 (human astrocytoma); test: MTT cytotoxicity assay, SNB-19; assay type: cell-based; details: for IC50: Homo sapiens, SNB-19, MTT, 72 h exposure, three independent experiments, read-out: Cytotoxic activity IC50 (95% CI) SNB-19; for Selectivity index SNB-19: ratio of cytotoxicity L929 / SNB-19
Description: as §1, §2, §3, §4, §5

[6] = tested on: HCT-116 (human colorectal carcinoma); test: MTT cytotoxicity assay, HCT-116; assay type: cell-based; details: for IC50: Homo sapiens, HCT-116, 72 h, MTT, 72 h exposure, three independent experiments, read-out: Cytotoxic activity IC50 (95% CI) HCT-116; for Selectivity index HCT-116: ratio of cytotoxicity L929 / HCT-116
Description: as §1, §2, §3, §4, §5

[7] = MTT cytotoxicity assay, L929 control line; assay type: cell-based, mouse; details: mouse, L929 fibroblast cells (non-tumoral control line), 72 h exposure, read-out: Cytotoxic activity IC50 (95% CI) L929
Description: as §1, §2, §3, §4, §5

[8] = tested on: A549 (human lung carcinoma); test: MTT cytotoxicity assay, A549; assay type: cell-based; details: for IC50: Homo sapiens, A549, MTT, 72 h exposure, three independent experiments, read-out: Cytotoxic activity IC50 (95% CI) A549; for Selectivity index A549: ratio of cytotoxicity L929 / A549
Description: as §1, §2, §3, §4, §5

[9] = tested on: B16 (murine melanoma); test: MTT cytotoxicity assay, B16; assay type: cell-based; details: for IC50: Mus musculus, MTT, 72 h exposure, three independent experiments, read-out: Cytotoxic activity IC50 (95% CI) B16; for Selectivity index B16: ratio of cytotoxicity L929 / B16
Description: as §1, §2, §3, §4, §5

[10] = tested on: PC3 (human prostate adenocarcinoma); test: MTT cytotoxicity assay, PC3; assay type: cell-based; details: for IC50: Homo sapiens, MTT, 72 h exposure, three independent experiments, read-out: Cytotoxic activity IC50 (95% CI) PC3; for Selectivity index PC3: ratio of cytotoxicity L929 / PC3
Description: as §1, §2, §3, §4, §5

Row | SMILES | IC50 [1] [µM] | Selectivity index RAJI [1] | IC50 ([2]; Homo sapiens, HL-60, 72 h) [µM] | Selectivity index HL60 [2] | IC50 [3] [µM] | Selectivity index K-562 [3] | IC50 [4] [µM] | Selectivity index KG1 [4] | IC50 [5] [µM] | Selectivity index SNB-19 [5] | IC50 [6] [µM] | Selectivity index HCT-116 [6] | IC50 at 72 h [7] [µM] | IC50 [8] [µM] | Selectivity index A549 [8] | IC50 [9] [µM] | Selectivity index B16 [9] | IC50 [10] [µM] | Selectivity index PC3 [10] | IC50 [2] [µM]
1 | O=C1C(=O)c2ccccc2C2=C1CC(Cn1cc(CNC3=CC(=O)c4c(I)cccc4C3=O)nn1)O2 (centres unmarked) [Compound 20a, 2-((4-(((5-iodo-1,4-dioxo-1,4-dihydronaphthalen-2-yl)amino)methyl)-1H-1,2,3-triazol-1-yl)methyl)-2,3-dihydronaphtho[1,2-b]furan-4,5-dione] | 2.8 | 2.0 | 2.84 | 2.0 | 5.56 | 1.0 | 25.3 | 0.2 | 8.5 | 0.7 | 5.47 | 1.0 | 5.59 | 15.3 | 0.4 | 4.19 | 1.3 | 9.79 | 0.6 | 
2 | COc1cccc2c1C(=O)C(NCc1cn(CC3CC4=C(O3)c3ccccc3C(=O)C4=O)nn1)=CC2=O (centres unmarked) [Compound 20c, 2-((4-(((8-methoxy-1,4-dioxo-1,4-dihydronaphthalen-2-yl)amino)methyl)-1H-1,2,3-triazol-1-yl)methyl)-2,3-dihydronaphtho[1,2-b]furan-4,5-dione] | 37 | 2.7 | 38.3 | 2.6 | > 100 |  | 39.4 | 2.5 | 49.6 | 2.0 | > 100 |  | > 100 | 24.5 | 4.1 | 44.1 | 2.3 | > 100 |  | 
3 | CC1(C)OC2=C(C(=O)C(=O)c3ccccc32)C1n1cc(CNC2=CC(=O)c3cccc(OCc4ccccc4)c3C2=O)nn1 (centres unmarked) [Compound 19d, 3-(4-(((8-benzyloxy-1,4-dioxo-1,4-dihydronaphthalen-2-yl)amino)methyl)-1H-1,2,3-triazol-1-yl)-2,2-dimethyl-2,3-dihydronaphtho[1,2-b]furan-4,5-dione] | 1.26 | 1.8 | 0.3 | 6.7 | 1.04 | 2.2 | 2.94 | 0.8 | 0.76 | 3.0 | 0.53 | 4.3 | 2.29 | 1.11 | 2.1 | 0.93 | 2.5 | 1.23 | 1.9 | 0.34
4 | C#CCNC1=CC(=O)c2cccc(OC)c2C1=O [Compound 18c, 8-methoxy-2-(prop-2-yn-1-ylamino)naphthalene-1,4-dione] | 39.3 | 2.5 | > 100 |  | > 100 |  | > 100 |  | > 100 |  | > 100 |  | > 100 | > 100 |  | 43.8 | 2.3 | > 100 |  | 
5 | CC1(C)OC2=C(CC1Cn1cc(CNC3=CC(=O)c4c(I)cccc4C3=O)nn1)C(=O)C(=O)c1ccccc12 (centres unmarked) [Compound 21a, 3-((4-(((5-iodo-1,4-dioxo-1,4-dihydronaphthalen-2-yl)amino)methyl)-1H-1,2,3-triazol-1-yl)methyl)-2,2-dimethyl-3,4-dihydro-2H-benzo[h]chromene-5,6-dione] | 5.71 | 0.3 | 1.02 | 1.8 | 5.03 | 0.4 | 4.2 | 0.4 | 2.93 | 0.6 | 2.69 | 0.7 | 1.86 | 2.76 | 0.7 | 0.96 | 1.9 | 6.19 | 0.3 | 
